Consider six molecules from patent US12162858B2, “Quinoline derivatives as inhibitors of AXL/MER RTK and CSF1R” (QURIENT CO., LTD., priority 2018, dated 2024).

Assay [1] has as its target T1, Mer (Ba/F3 cells) (Homo sapiens, UniProt Q12866).
T1 sequence (Q12866 1-999): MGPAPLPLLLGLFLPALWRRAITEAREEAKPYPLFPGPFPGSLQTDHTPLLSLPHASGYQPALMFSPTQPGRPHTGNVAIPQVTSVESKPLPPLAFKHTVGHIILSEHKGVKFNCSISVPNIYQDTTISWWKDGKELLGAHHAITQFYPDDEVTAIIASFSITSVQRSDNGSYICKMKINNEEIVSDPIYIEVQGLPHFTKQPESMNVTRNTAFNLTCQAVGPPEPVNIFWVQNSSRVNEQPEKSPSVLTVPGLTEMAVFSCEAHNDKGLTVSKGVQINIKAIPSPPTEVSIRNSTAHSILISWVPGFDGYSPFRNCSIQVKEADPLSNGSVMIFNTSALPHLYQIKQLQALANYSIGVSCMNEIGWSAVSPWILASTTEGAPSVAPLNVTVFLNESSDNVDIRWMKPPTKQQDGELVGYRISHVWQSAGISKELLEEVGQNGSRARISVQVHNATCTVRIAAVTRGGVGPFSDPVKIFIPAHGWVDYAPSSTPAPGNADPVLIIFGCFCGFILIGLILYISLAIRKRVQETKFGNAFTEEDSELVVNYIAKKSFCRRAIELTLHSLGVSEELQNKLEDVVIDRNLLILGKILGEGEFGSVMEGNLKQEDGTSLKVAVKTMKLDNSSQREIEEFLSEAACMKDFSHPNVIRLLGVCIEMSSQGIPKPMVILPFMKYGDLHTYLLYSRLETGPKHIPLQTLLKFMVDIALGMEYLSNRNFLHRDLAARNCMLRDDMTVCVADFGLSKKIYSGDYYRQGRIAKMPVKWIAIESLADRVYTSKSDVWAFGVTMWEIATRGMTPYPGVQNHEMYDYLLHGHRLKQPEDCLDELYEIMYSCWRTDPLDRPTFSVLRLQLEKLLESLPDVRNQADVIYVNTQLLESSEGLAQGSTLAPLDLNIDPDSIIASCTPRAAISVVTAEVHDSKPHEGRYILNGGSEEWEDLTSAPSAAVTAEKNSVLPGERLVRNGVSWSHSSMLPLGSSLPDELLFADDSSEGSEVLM
Description: BaF3 viability assay, Mer-dependent cells. Format: cell-based. The conditions noted are these: read-out: Cellular Mer activity by Ba/F3 assay (IC50). From the text: (§1) In this system, IL-3-dependent Ba/F3 cells are modified to express an activated recombinant kinase (in the present case Axl, Mer and CSF1R). Following removal of IL-3, the modified cells are dependent on the activity of the recombinant kinase for survival and proliferation. Inhibition of such kinase(s) through test compounds reduces survival and proliferation of the cells.
(§2) Cell lines were maintained in growth media (GM) consisting of RPMI 1640 supplemented with 10% FBS. Cells in logarithmic-phase growth were harvested and 5,000 cells were distributed into each well of a 384-well plate in 50 μl GM. Parental cells (or experimental assays where specified) were further supplemented with 2 ng/ml IL-3 to support cell growth and survival. Fifty nanoliters of the indicated reference standard or experimental compound were added to appropriate wells (in duplicate) and the cells were cultured for 48 h at 37° C./5% CO2. Viability was determined by adding 10 μl Cell Titer Glo and measuring luminescence, which is reported as relative light units (RLU) measured in counts per second. The following calculations and formulas are used for data analysis using GraphPad Prism software: The curve fitting was made using the Dose response curves-Inhibition.

The target in assay [2] is CSF1R (Ba/F3 cells) (Homo sapiens, UniProt P07333). Description: BaF3 viability assay, CSF1R-dependent cells. Format: cell-based. Particulars: read-out: Cellular CSF1R activity by Ba/F3 assay (IC50).
Excerpt: as §1, §2

Assay [3] concerns the target CSF1R (Homo sapiens, UniProt P07333). Description: KINOMEscan competition binding assay for CSF1R. More on the design: DNA tag for qPCR (not a peptide); host or cells: E. coli/T7 phage or HEK-293. Particulars: @ 0.1 uM. In short, it runs like this:
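Values are either % inhibition at 0.1 uM, relative to DMSO (100% Ctrl) and a control compound (0% Ctrl), or Kd from an 11-point 3-fold series fitted with Hill slope −1. DNA-tagged kinase binds immobilized ligand beads with compound for 1 h at room temperature, and eluted kinase is measured by qPCR.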

Where [4] appears, read: read-out: CSF1R kinase binding activity, Percent (%) inhibition.
The mark [5] stands for this setting: read-out: CSF1R kinase binding activity, Range.

Where two headings read alike, the source gives them in different places.

Sequence of CSF1R (Ba/F3 cells) (P07333 whole entry, change not shown): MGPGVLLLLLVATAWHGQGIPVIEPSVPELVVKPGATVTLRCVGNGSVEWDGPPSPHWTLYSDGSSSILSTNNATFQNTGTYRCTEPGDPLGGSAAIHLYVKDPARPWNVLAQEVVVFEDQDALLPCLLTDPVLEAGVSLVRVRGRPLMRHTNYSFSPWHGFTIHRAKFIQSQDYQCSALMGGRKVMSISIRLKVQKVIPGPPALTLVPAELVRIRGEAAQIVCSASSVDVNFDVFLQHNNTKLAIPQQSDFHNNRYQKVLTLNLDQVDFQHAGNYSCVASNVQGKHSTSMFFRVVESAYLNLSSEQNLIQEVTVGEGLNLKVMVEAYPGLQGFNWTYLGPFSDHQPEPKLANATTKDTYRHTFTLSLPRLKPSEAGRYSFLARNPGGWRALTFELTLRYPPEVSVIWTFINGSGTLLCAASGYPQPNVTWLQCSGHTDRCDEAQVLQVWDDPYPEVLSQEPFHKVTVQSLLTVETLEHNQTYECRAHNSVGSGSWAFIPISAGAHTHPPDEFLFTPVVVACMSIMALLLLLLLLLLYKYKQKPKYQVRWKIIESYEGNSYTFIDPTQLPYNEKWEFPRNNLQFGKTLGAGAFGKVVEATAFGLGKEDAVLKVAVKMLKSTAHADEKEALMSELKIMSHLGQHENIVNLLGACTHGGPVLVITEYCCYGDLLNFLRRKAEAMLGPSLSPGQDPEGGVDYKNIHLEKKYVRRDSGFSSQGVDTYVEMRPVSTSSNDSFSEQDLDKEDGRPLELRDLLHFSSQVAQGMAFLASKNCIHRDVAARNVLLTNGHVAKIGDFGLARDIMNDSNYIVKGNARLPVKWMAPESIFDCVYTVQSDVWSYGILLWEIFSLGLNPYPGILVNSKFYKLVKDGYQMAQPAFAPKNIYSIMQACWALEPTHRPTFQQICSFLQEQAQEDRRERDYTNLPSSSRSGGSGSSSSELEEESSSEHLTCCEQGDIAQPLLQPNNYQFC
Sequence of CSF1R (P07333 20-972): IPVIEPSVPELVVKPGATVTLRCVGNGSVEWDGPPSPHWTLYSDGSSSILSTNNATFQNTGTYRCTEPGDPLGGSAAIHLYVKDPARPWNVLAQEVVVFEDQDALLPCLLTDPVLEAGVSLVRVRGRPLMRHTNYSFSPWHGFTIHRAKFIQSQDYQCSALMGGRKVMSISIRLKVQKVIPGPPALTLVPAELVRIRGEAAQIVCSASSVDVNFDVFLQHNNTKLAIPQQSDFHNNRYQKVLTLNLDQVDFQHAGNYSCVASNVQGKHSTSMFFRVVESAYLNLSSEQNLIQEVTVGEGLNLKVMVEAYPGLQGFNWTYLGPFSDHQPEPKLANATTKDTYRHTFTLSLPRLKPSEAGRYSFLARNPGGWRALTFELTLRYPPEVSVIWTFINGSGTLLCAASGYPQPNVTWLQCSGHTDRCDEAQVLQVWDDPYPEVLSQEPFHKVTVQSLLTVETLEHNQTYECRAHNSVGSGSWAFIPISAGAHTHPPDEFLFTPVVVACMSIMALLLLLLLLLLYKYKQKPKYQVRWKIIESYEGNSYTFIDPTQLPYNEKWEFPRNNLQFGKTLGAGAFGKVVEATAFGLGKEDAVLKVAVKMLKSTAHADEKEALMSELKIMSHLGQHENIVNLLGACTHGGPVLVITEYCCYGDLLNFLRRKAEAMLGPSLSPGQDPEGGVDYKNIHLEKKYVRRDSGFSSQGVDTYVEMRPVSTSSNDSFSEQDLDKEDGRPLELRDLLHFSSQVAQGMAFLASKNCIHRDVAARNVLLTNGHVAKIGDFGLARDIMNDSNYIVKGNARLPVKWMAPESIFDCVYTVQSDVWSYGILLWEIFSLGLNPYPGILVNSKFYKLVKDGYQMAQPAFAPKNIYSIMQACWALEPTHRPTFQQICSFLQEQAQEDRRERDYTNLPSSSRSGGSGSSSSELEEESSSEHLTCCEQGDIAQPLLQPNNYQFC

For the molecule `COc1cc2nccc(Oc3ccc(NC(=O)c4nn(C[C@H](C)O)cc4OCC(F)(F)F)nc3)c2cc1OC` [Compound 30], the GI50 in assay [1] and in assay [2] was less than 1 µM in each case. The figures for the inhibition at 0.1 µM in assay [3] (setting [4]) and in assay [3] (setting [5]) were 99% and no less than 80%, respectively.

`COc1cc2nccc(Oc3ccc(NC(=O)c4nn(CCCO)cc4OCC(F)(F)F)nc3)c2cc1OC` [Compound 18]: the GI50 in assay [1] and in assay [2] was less than 1 µM in each case. Further, the inhibition at 0.1 µM in assay [3] (setting [4]) is 97%; in assay [3] (setting [5]), no less than 80%.

Regarding `CCCn1cc(OC(C)C)c(C(=O)Nc2ccc(Oc3ccnc4cc(OC)c(OC(F)(F)F)cc34)c(F)c2)n1` [Compound 35], the GI50 in assay [1] is no less than 10 µM; in assay [2], 1 to 10 µM. The inhibition at 0.1 µM in assay [3] (setting [4]) is 6%; in assay [3] (setting [5]), less than 50%.

Regarding `CCCn1cc(OCCC(O)CO)c(C(=O)Nc2ccc(Oc3ccnc4cc(OC)c(OC)cc34)cn2)n1` (stereo not drawn) [Compound 15], the GI50 in assay [1] and in assay [2] was 1 to 10 µM each time. Further, the inhibition at 0.1 µM in assay [3] (setting [4]) is 87%; in assay [3] (setting [5]), no less than 80%.

As to `COc1cc2nccc(Oc3ccc(NC(=O)c4nn(C[C@@H](C)O)cc4OCC(F)(F)F)nc3)c2cc1OC` [Compound 29], the GI50 in assay [1] and in assay [2] was less than 1 µM in each case. In addition, the values for the inhibition at 0.1 µM in assay [3] (setting [4]) and in assay [3] (setting [5]) were 99% and no less than 80%, respectively.

As for `COc1cc2nccc(Oc3ccc(NC(=O)c4nn(CC(C)O)cc4OCC(F)(F)F)nc3)c2cc1OC` (stereo not drawn) [Compound 17], the GI50 in assay [1] and in assay [2] was less than 1 µM throughout. The results for the inhibition at 0.1 µM in assay [3] (setting [4]) and in assay [3] (setting [5]) were 97% and no less than 80%, respectively.
